PubChem BioAssay AID2060903 (Molecular Pharmacology Branch, DTP, NCI, 2025)

System: 377384-186-R-J1-PDC complex spheroid viability
Experiment: Anticancer human tumor 377384-186-R-J1-PDC patient-derived pancreatic carcinoma cell line growth inhibition [RAS]
Details: for IC50: curve of first compound; for viability, T/C: stronger effect = lower value
Method in brief: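 Multi-cell-type spheroids: tumor cells plus HUVEC endothelial cells and mesenchymal stem cells. RAS-pathway inhibitors were combined with targeted agents, each dosed in half-log steps down from clinical Cmax, or from 10 microM when Cmax was unknown.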

[1] = second compound 0.000949 µM, first compound 0.00316 µM
[2] = second compound 0.000949 µM, first compound 0.01 µM
[3] = second compound 0.000949 µM, first compound 0.0316 µM
[4] = second compound 0.000949 µM, first compound 0.1 µM
[5] = second compound 0.003 µM, first compound 0.00316 µM
[6] = second compound 0.003 µM, first compound 0.01 µM
[7] = second compound 0.003 µM, first compound 0.0316 µM
[8] = second compound 0.003 µM, first compound 0.1 µM
[9] = second compound 0.00949 µM, first compound 0.00316 µM
[10] = second compound 0.00949 µM, first compound 0.01 µM
[11] = second compound 0.00949 µM, first compound 0.0316 µM
[12] = second compound 0.00949 µM, first compound 0.1 µM
[13] = second compound 0.03 µM, first compound 0.00316 µM
[14] = second compound 0.03 µM, first compound 0.01 µM
[15] = second compound 0.03 µM, first compound 0.0316 µM
[16] = second compound 0.03 µM, first compound 0.1 µM
[17] = second compound 0.0949 µM, first compound 0.00316 µM
[18] = second compound 0.0949 µM, first compound 0.01 µM
[19] = second compound 0.0949 µM, first compound 0.0316 µM
[20] = second compound 0.0949 µM, first compound 0.1 µM
[21] = second compound 0.3 µM, first compound 0.00316 µM
[22] = second compound 0.3 µM, first compound 0.01 µM
[23] = second compound 0.3 µM, first compound 0.0316 µM
[24] = second compound 0.3 µM, first compound 0.1 µM
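Further: spheroids exposed to compounds for seven days before readout.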

With `O=C(c1ccc(F)c(F)c1Nc1ccc(I)cc1F)N1CC(O)([C@@H]2CCCCN2)C1` + CCn1c(-c2cc(N3CCN(C)CC3)cnc2C(C)OC)c2c3cc(ccc31)-c1csc(n1)CC(NC(=O)C1CC1C)C(=O)N1CCCC(N1)C(=O)OCC(C)(C)C2 the IC50 (second compound 0.000949 µM) was less than 3.16 nM, the IC50 (second compound 0.003 µM) was less than 3.16 nM and the IC50 (second compound 0.00949 µM) was less than 3.16 nM. The IC50 (second compound 0.03 µM) was less than 3.16 nM, the IC50 (second compound 0.0949 µM) was less than 3.16 nM and the IC50 (second compound 0.3 µM) was less than 3.16 nM. The viability, T/C [1] was 40.6%, the viability, T/C [2] was 28.1% and the viability, T/C [3] was 9.77%. For the same compound, the viability, T/C [4] was 2.04%, the viability, T/C (second compound 0.000949 µM, first compound 0.316 µM) was 0.28% and the viability, T/C (second compound 0.000949 µM, first compound 1 µM) was 0.8%. It also gave a viability, T/C [5] of 16.4%, a viability, T/C [6] of 4.75% and a viability, T/C [7] of 3.32%. For the same compound, the viability, T/C [8] was 1.15%, the viability, T/C (second compound 0.003 µM, first compound 0.316 µM) was 0.17% and the viability, T/C (second compound 0.003 µM, first compound 1 µM) was 0.13%. The viability, T/C [9] was 3.22%, the viability, T/C [10] was 2.06% and the viability, T/C [11] was 1.32%. It also gave a viability, T/C [12] of 0.24%, a viability, T/C (second compound 0.00949 µM, first compound 0.316 µM) of 0.08% and a viability, T/C (second compound 0.00949 µM, first compound 1 µM) of 0.13%. It also gave a viability, T/C [13] of 2.61%, a viability, T/C [14] of 1.37% and a viability, T/C [15] of 0.71%. It also gave a viability, T/C [16] of 0.07%, a viability, T/C (second compound 0.03 µM, first compound 0.316 µM) of 0.12% and a viability, T/C (second compound 0.03 µM, first compound 1 µM) of 0.09%. The viability, T/C [17] was 1.11%, the viability, T/C [18] was 0.96% and the viability, T/C [19] was 0.28%. It also gave a viability, T/C [20] of 0.12%, a viability, T/C (second compound 0.0949 µM, first compound 0.316 µM) of 0.15% and a viability, T/C (second compound 0.0949 µM, first compound 1 µM) of 0.18%. It also gave a viability, T/C [21] of 1.01%, a viability, T/C [22] of 1.34% and a viability, T/C [23] of 0.16%. For the same compound, the viability, T/C [24] was 0.2%, the viability, T/C (second compound 0.3 µM, first compound 0.316 µM) was 0.28% and the viability, T/C (second compound 0.3 µM, first compound 1 µM) was 0.18%.
With `CC(C)n1nc(-c2ccc3oc(N)nc3c2)c2c(N)ncnc21` + CCn1c(-c2cccnc2C(C)OC)c2c3cc(ccc31)N1CCOC(CC(NC(=O)C(C(C)C)N(C)C(=O)C3(F)CCN(C(=O)C#CC(C)(C)N(C)C)CC3)C(=O)N3CCCC(N3)C(=O)OCC(C)(C)C2)C1 the IC50 (second compound 0.000949 µM) was greater than 100 nM, the IC50 (second compound 0.003 µM) was greater than 100 nM and the IC50 (second compound 0.00949 µM) was greater than 100 nM. For the same compound, the IC50 (second compound 0.03 µM) was greater than 100 nM, the IC50 (second compound 0.0949 µM) was greater than 100 nM and the IC50 (second compound 0.3 µM) was 7.68 nM. The viability, T/C (second compound 0.000949 µM, first compound 0.000316 µM) was 96.9%, the viability, T/C (second compound 0.000949 µM, first compound 0.001 µM) was 92% and the viability, T/C [1] was 80.3%. For the same compound, the viability, T/C [2] was 62.1%, the viability, T/C [3] was 31.9% and the viability, T/C [4] was 99%. It also gave a viability, T/C (second compound 0.003 µM, first compound 0.000316 µM) of 93.8%, a viability, T/C (second compound 0.003 µM, first compound 0.001 µM) of 84.8% and a viability, T/C [5] of 86.8%. It also gave a viability, T/C [6] of 59.4%, a viability, T/C [7] of 37.1% and a viability, T/C [8] of 98.4%. For the same compound, the viability, T/C (second compound 0.00949 µM, first compound 0.000316 µM) was 96.2%, the viability, T/C (second compound 0.00949 µM, first compound 0.001 µM) was 91.7% and the viability, T/C [9] was 66.6%. It also gave a viability, T/C [10] of 55.8%, a viability, T/C [11] of 34.1% and a viability, T/C [12] of 89.8%. It also gave a viability, T/C (second compound 0.03 µM, first compound 0.000316 µM) of 86.6%, a viability, T/C (second compound 0.03 µM, first compound 0.001 µM) of 78.1% and a viability, T/C [13] of 72.3%. It also gave a viability, T/C [14] of 53.8%, a viability, T/C [15] of 33.7% and a viability, T/C [16] of 101%. The viability, T/C (second compound 0.0949 µM, first compound 0.000316 µM) was 77%, the viability, T/C (second compound 0.0949 µM, first compound 0.001 µM) was 82.2% and the viability, T/C [17] was 71.4%. The viability, T/C [18] was 55%, the viability, T/C [19] was 37.9% and the viability, T/C [20] was 69.3%. The viability, T/C (second compound 0.3 µM, first compound 0.000316 µM) was 68.8%, the viability, T/C (second compound 0.3 µM, first compound 0.001 µM) was 74.7% and the viability, T/C [21] was 66.8%. For the same compound, the viability, T/C [22] was 45.7%, the viability, T/C [23] was 27.2% and the viability, T/C [24] was 56.1%.
